Reference: publication PMC4840931 (Clinical cancer research : an official journal of the …, 2015)
Read-outs that look alike come from different tables or passages of the source. Marks after values point to notes of the source that are not given here.

How the values were obtained:
[1] = cited from earlier work
[2] = test system: human lung (H146) mouse xenograft; details: cited from earlier work
[3] = test system: human umbilical vein endothelial cell; details: cited from earlier work
[4] = test system: human umbilical vein endothelial cell; details: cited from earlier work; remark: listed apart in the source
[5] = test system: breast cancer (MDA-MB-231) mouse xenograft; details: cited from earlier work
Plasma pharmacokinetics = details: human, in vivo
[6] = test system: patients with advanced solid tumors; format: in vivo
[7] = test system: patients with advanced solid tumors; test: Tumor response by RECIST version 1.0; format: in vivo, human
[8] = Urinary excretion of unchanged lenvatinib; format: in vivo, human; details: for fe (fraction of the dose excreted in urine): mean (SD)

SMILES: COc1cc2nccc(Oc3ccc(NC(=O)NC4CC4)c(Cl)c3)c2cc1C(N)=O [lenvatinib]
- Effect of co-administration of CYP3A4 inhibitors and inducers on exposure [1]: neither affected
- Tumor growth [2]: significantly inhibits
- VEGF-driven human umbilical vein endothelial cell proliferation [3]: inhibits
- VEGF-driven human umbilical vein endothelial cell tube formation [4]: inhibits
- Tumor growth [5]: significantly inhibits
- Accumulation, steady state vs single dose (Plasma pharmacokinetics): 1.5-2.2 fold
- Tmax (Plasma pharmacokinetics): 1.5 to 3 h
- Cmax (Plasma pharmacokinetics; 3.2 mg): 51.4 (30.5) ng/mL
- AUC(0-t) (Plasma pharmacokinetics; 3.2 mg, AUC0-6): 180 ng·h/mL
- AUC(0-t) (Plasma pharmacokinetics; 3.2 mg, AUC0-24): 407 ng·h/mL
- AUC0-24 (Plasma pharmacokinetics; 5 mg): 649.70 (256.151) ng·hr/mL
- AUC(0-t) (Plasma pharmacokinetics; 5 mg, AUC0-6): 245 ng·h/mL
- Cmax (Plasma pharmacokinetics; 5 mg, Cmax): 62.6 ng/mL
- AUC0-6 (Plasma pharmacokinetics; 8 mg): 678 (262) ng·hr/mL
- AUC0-24 (Plasma pharmacokinetics; 8 mg): 1819.57 (735.252) ng·hr/mL
- CL/F (Plasma pharmacokinetics; 8 mg): 8.05 L/h
- Cmax (Plasma pharmacokinetics; 8 mg): 168 (73.4) ng/mL
- Tmax (Plasma pharmacokinetics; 8 mg): 2.5 h
- Vd/F (Plasma pharmacokinetics; 8 mg): 86.8 L
- AUC(0-t) (Plasma pharmacokinetics; 8 mg, AUC0-6): 613 ng·h/mL
- AUC(0-t) (Plasma pharmacokinetics; 8 mg, AUC0-24): 1300 ng·h/mL
- Cmax (Plasma pharmacokinetics; 8 mg, Cmax): 177 ng/mL
- AUC0-6 (Plasma pharmacokinetics; 10 mg): 815(320) ng·hr/mL
- AUC0-24 (Plasma pharmacokinetics; 10 mg): 1984.94 (971.427) ng·hr/mL
- Cmax (Plasma pharmacokinetics; 10 mg): 209 (107) ng/mL
- Tmax (Plasma pharmacokinetics; 10 mg): 2 h
- Vd/F (Plasma pharmacokinetics; 10 mg): 75.4 L
- tmax (Plasma pharmacokinetics; 10 mg): 3.00 (0.00−6.00) hr
- AUC(0-t) (Plasma pharmacokinetics; 10 mg, AUC0-6): 608 ng·h/mL
- AUC(0-t) (Plasma pharmacokinetics; 10 mg, AUC0-24): 1370 ng·h/mL
- Cmax (Plasma pharmacokinetics; 10 mg, Cmax): 167 ng/mL
- Tmax (Plasma pharmacokinetics; 12 mg): 1.5 h
- AUC(0-t) (Plasma pharmacokinetics; 12 mg, AUC0-6): 913 ng·h/mL
- AUC(0-t) (Plasma pharmacokinetics; 12 mg, AUC0-24): 1810 ng·h/mL
- Cmax (Plasma pharmacokinetics; 12 mg, Cmax): 232 ng/mL
- CL/F (Plasma pharmacokinetics; 16 mg): 6.09 L/h
- Vd/F (Plasma pharmacokinetics; 16 mg): 68.5 L
- AUC(0-t) (Plasma pharmacokinetics; 16 mg, AUC0-6): 1510 ng·h/mL
- Cmax (Plasma pharmacokinetics; 16 mg, Cmax): 341 ng/mL
- Study drug–related TEAE, Hypertension, CTCAE grade 3 ([6]; Entire Study Population (N=77)): 13 (16.9) n (%)
- Study drug–related TEAE, Hypertension, CTCAE grade 3+4 ([6]; Entire Study Population (N=77)): 13 (16.9) n (%)
- Study drug–related TEAE, Diarrhea, Total ([6]; Melanoma Expansion Cohort 10.0 mg bid (n=26)): 8 (30.8) n (%)
- Died during therapy or within 30 days of the last treatment ([6]; expanded melanoma cohort (n=26)): 30.8%
- Grade 3 study drug–related toxicity: body weight reduction ([6]; human, in vivo): 8%
- Grade 3 study drug–related toxicity: diarrhea ([6]; human, in vivo): 5%
- Grade 3 study drug–related toxicity: fatigue ([6]; human, in vivo): 7%
- Grade 3 study drug–related toxicity: hypertension ([6]; human, in vivo): 17%
- Grade 3 study drug–related toxicity: proteinuria ([6]; human, in vivo): 5%
- Grade 4 proteinuria, treatment-related ([6]; human, in vivo): 1 event
- Grade 4 reversible posterior leukoencephalopathy syndrome, treatment-related ([6]; human, in vivo): 1 event
- Grade 4 thrombocytopenia, treatment-related ([6]; human, in vivo): 1 event
- Grade 4 thrombotic thrombocytopenic purpura, treatment-related ([6]; human, in vivo): 1 event
- Study drug–related TEAE, Anorexia, CTCAE grade 1 ([6]; human, in vivo): 8 (10.4) n (%)
- Study drug–related TEAE, Anorexia, CTCAE grade 2 ([6]; human, in vivo): 11 (14.3) n (%)
- Study drug–related TEAE, Anorexia, CTCAE grade 3 ([6]; human, in vivo): 0 n (%)
- Study drug–related TEAE, Anorexia, CTCAE grade 3+4 ([6]; human, in vivo): 0 n (%)
- Study drug–related TEAE, Anorexia, CTCAE grade 4 ([6]; human, in vivo): 0 n (%)
- Study drug–related TEAE, Anorexia, Total ([6]; human, in vivo): 19 (24.7) n (%)
- Study drug–related TEAE, Any AE, CTCAE grade 1 ([6]; human, in vivo): 6 (7.8) n (%)
- Study drug–related TEAE, Any AE, CTCAE grade 2 ([6]; human, in vivo): 30 (39.0) n (%)
- Study drug–related TEAE, Any AE, CTCAE grade 3 ([6]; human, in vivo): 28 (36.4) n (%)
- Study drug–related TEAE, Any AE, CTCAE grade 3+4 ([6]; human, in vivo): 32 (41.6) n (%)
- Study drug–related TEAE, Any AE, CTCAE grade 4 ([6]; human, in vivo): 4 (5.2) n (%)
- Study drug–related TEAE, Any AE, Total ([6]; human, in vivo): 68 (88.3) n (%)
- Study drug–related TEAE, Diarrhea, CTCAE grade 1 ([6]; human, in vivo): 7 (9.1) n (%)
- Study drug–related TEAE, Diarrhea, CTCAE grade 2 ([6]; human, in vivo): 6 (7.8) n (%)
- Study drug–related TEAE, Diarrhea, CTCAE grade 3 ([6]; human, in vivo): 4 (5.2) n (%)
- Study drug–related TEAE, Diarrhea, CTCAE grade 3+4 ([6]; human, in vivo): 4 (5.2) n (%)
- Study drug–related TEAE, Diarrhea, CTCAE grade 4 ([6]; human, in vivo): 0 n (%)
- Study drug–related TEAE, Diarrhea, Total ([6]; human, in vivo): 17 (22.1) n (%)
- Study drug–related TEAE, Fatigue, CTCAE grade 1 ([6]; human, in vivo): 10 (13.0) n (%)
- Study drug–related TEAE, Fatigue, CTCAE grade 2 ([6]; human, in vivo): 17 (22.1) n (%)
- Study drug–related TEAE, Fatigue, CTCAE grade 3 ([6]; human, in vivo): 5 (6.5) n (%)
- Study drug–related TEAE, Fatigue, CTCAE grade 3+4 ([6]; human, in vivo): 5 (6.5) n (%)
- Study drug–related TEAE, Fatigue, CTCAE grade 4 ([6]; human, in vivo): 0 n (%)
- Study drug–related TEAE, Fatigue, Total ([6]; human, in vivo): 32 (41.6) n (%)
- Study drug–related TEAE, Hypertension, CTCAE grade 1 ([6]; human, in vivo): 2 (2.6) n (%)
- Study drug–related TEAE, Hypertension, CTCAE grade 2 ([6]; human, in vivo): 18 (23.4) n (%)
- Study drug–related TEAE, Hypertension, CTCAE grade 4 ([6]; human, in vivo): 0 n (%)
- Study drug–related TEAE, Hypertension, Total ([6]; human, in vivo): 33 (42.9) n (%)
- Study drug–related TEAE, Nausea, CTCAE grade 1 ([6]; human, in vivo): 9 (11.7) n (%)
- Study drug–related TEAE, Nausea, CTCAE grade 2 ([6]; human, in vivo): 8 (10.4) n (%)
- Study drug–related TEAE, Nausea, CTCAE grade 3 ([6]; human, in vivo): 2 (2.6) n (%)
- Study drug–related TEAE, Nausea, CTCAE grade 3+4 ([6]; human, in vivo): 2 (2.6) n (%)
- Study drug–related TEAE, Nausea, CTCAE grade 4 ([6]; human, in vivo): 0 n (%)
- Study drug–related TEAE, Nausea, Total ([6]; human, in vivo): 19 (24.7) n (%)
- Study drug–related TEAE, Proteinuria, CTCAE grade 1 ([6]; human, in vivo): 7 (9.1) n (%)
- Study drug–related TEAE, Proteinuria, CTCAE grade 2 ([6]; human, in vivo): 18 (23.4) n (%)
- Study drug–related TEAE, Proteinuria, CTCAE grade 3 ([6]; human, in vivo): 4 (5.2) n (%)
- Study drug–related TEAE, Proteinuria, CTCAE grade 3+4 ([6]; human, in vivo): 5 (6.5) n (%)
- Study drug–related TEAE, Proteinuria, CTCAE grade 4 ([6]; human, in vivo): 1 (1.3) n (%)
- Study drug–related TEAE, Proteinuria, Total ([6]; human, in vivo): 30 (39.0) n (%)
- Study drug–related TEAE, Weight decreased, CTCAE grade 1 ([6]; human, in vivo): 6 (7.8) n (%)
- Study drug–related TEAE, Weight decreased, CTCAE grade 2 ([6]; human, in vivo): 7 (9.1) n (%)
- Study drug–related TEAE, Weight decreased, CTCAE grade 3 ([6]; human, in vivo): 6 (7.8) n (%)
- Study drug–related TEAE, Weight decreased, CTCAE grade 3+4 ([6]; human, in vivo): 6 (7.8) n (%)
- Study drug–related TEAE, Weight decreased, CTCAE grade 4 ([6]; human, in vivo): 0 n (%)
- Study drug–related TEAE, Weight decreased, Total ([6]; human, in vivo): 19 (24.7) n (%)
- Study drug–related toxicity: diarrhea ([6]; human, in vivo): 22%
- Study drug–related toxicity: fatigue ([6]; human, in vivo): 42%
- Study drug–related toxicity: hypertension ([6]; human, in vivo): 43%
- Study drug–related toxicity: nausea ([6]; human, in vivo): 25%
- Study drug–related toxicity: proteinuria ([6]; human, in vivo): 39%
- Dose-limiting toxicities ([6]; in vivo): no DLTs
- Died during therapy or within 30 days of the last treatment ([6]; overall population n=77): 16.9%
- Maximum tolerated dose (MTD) ([6]; po bid, continuous dosing, 28-day cycles): 10 mg
- Durable SD ≥23 weeks ([7]; all 29 patients with melanoma): 24.1%
- PD ([7]; all 29 patients with melanoma): 17.2%
- PR ([7]; all 29 patients with melanoma): 10.3%
- PRs/uPRs as best response ([7]; all 29 patients with melanoma): 17.2%
- PR or uPR in patients with wild-type BRAF ([7]; expanded melanoma cohort, 3 of 17 patients): 17.6%
- Responses (PR/uPR) by disease: lung ([7]; in vivo): 1/1
- Responses (PR/uPR) by disease: melanoma ([7]; in vivo): 5/29
- Responses (PR/uPR) by disease: ovarian ([7]; in vivo): 1/5
- Responses (PR/uPR) by disease: pancreatic ([7]; in vivo): 1/2
- Responses (PR/uPR) by disease: renal ([7]; in vivo): 1/1
- Responses (PR/uPR) by disease: thyroid ([7]; in vivo): 3/6
- PR/uPR as best response ([7]; overall, n=77): 15.6%
- Total PR/uPR/SD≥23 weeks ([7]; overall, n=77): 40.3%
- Median number of cycles after which confirmed PRs were determined ([7]; overall, range, 4–46 cycles): 18 cycles
- Confirmed PR ([7]; schedule 1, 18 patients): no patient
- PD ([7]; schedule 1, 18 patients): 44.4%
- uPR ([7]; schedule 1, NSCLC): One
- Confirmed PR ([7]; schedule 2, 33 patients): 21.2%
- Durable SD ([7]; schedule 2, 33 patients): 9 patients
- PD ([7]; schedule 2, 33 patients): 18.2%
- fe (fraction of the dose excreted in urine) ([8]; Melanoma Expansion Cohort, Cycle 1 Day 1, 10 mg, n=25): 0.45 (0.282) %
- fe (fraction of the dose excreted in urine) ([8]; Melanoma Expansion Cohort, Cycle 2 Day 1, 10 mg, n=16): 0.95 (0.987) %
- fe (fraction of the dose excreted in urine) ([8]; Schedule 2 continuous daily dosing, Cycle 1 Day 1, 3.2 mg, n=3): 0.37 (0.102) %
- fe (fraction of the dose excreted in urine) ([8]; Schedule 2 continuous daily dosing, Cycle 1 Day 1, 5 mg, n=7): 1.47 (0.685) %
- fe (fraction of the dose excreted in urine) ([8]; Schedule 2 continuous daily dosing, Cycle 1 Day 1, 8 mg, n=10): 0.83^a (0.351) %
- fe (fraction of the dose excreted in urine) ([8]; Schedule 2 continuous daily dosing, Cycle 1 Day 1, 12 mg, n=4): 0.68 (0.283) %
- fe (fraction of the dose excreted in urine) ([8]; Schedule 2 continuous daily dosing, Cycle 2 Day 1, 8 mg, n=6): 1.26 (1.168) %
- fe (fraction of the dose excreted in urine) ([8]; Schedule 2 continuous daily dosing, Cycle 2 Day 1, 16 mg, n=6): 1.35 (0.593) %
- Fraction of the dose excreted unchanged in the urine (fe) ([8]; during the 24 hours following the dose, regardless of dose): < 1.5%
